Assay results published in patent publication US20210106574A1, “Methods of Treating Cancer” (Tesaro, Inc., priority 2017, published 2021).
Where a name gives a salt, the structure may show the parent alone. Read-outs that look alike come from different tables or passages of the source.

How the values were obtained:
[1] = system: patients with advanced BRCA-mutant ovarian cancer; details: cited from earlier work
[2] = system: platinum-sensitive recurrent ovarian cancer patients
Description: Two cohorts were treated: the germline BRCA mutant positive cohort (gBRCAmut) and the non-germline BRCA cohort (non-gBRCAmut). […] Patients in this cohort were germline BRCA mutation carriers as assessed by the FDA-approved Integrated BRACAnalysis test. Patients in the non-gBRCAmut were negative in the FDA-approved Integrated BRACAnalysis test.
This objective is independently evaluated in a cohort of patients with germline BRCA mutation (gBRCAmut) and in a cohort of patients who have high grade serous or high grade predominantly serous histology but without such gBRCA mutations (non-gBRCAmut). […] Accordingly, HRD is used as a tumor biomarker classifier to be evaluated.
Study treatment was dispensed to patients on Day 1 and every cycle (28 days) thereafter until the patient discontinued study treatment. Study treatment was administered orally once daily continuously. Three capsules of 100 mg strength were taken at each dose administration. Clinic visits occurred in each cycle (every 4 weeks 3 days). Response evaluation criteria in solid tumors (RECIST) tumor assessment via computed tomography (CT) or magnetic resonance imaging (MRI) scan of abdomen/pelvis and clinically indicated areas was required at the end of every 2-cycles (8-weeks with a window of 7 days from date of visit) through Cycle 14, then at the end of every 3-cycles (12-weeks with a window of 7 days from date of visit) until progression.
Patients were assessed by the prolongation of progression-free survival (PFS). […] Response Evaluation Criteria in Solid Tumors (RECIST) was used for tumor assessment via a computed tomography (CT) or magnetic resonance imaging (MRI) scan of abdomen/pelvis and clinically indicated areas, which was required at the end of every 2-cycles (8-weeks) through cycle 14 (56-weeks), and then at the end of every 3-cycles (12-weeks) until progression.
Following completion of the NOVA study, formalin-fixed, paraffin-embedded (FFPE) archival tumor samples from NOVA patients were retrospectively analyzed using a pre-specified gene panel. […]

[3] = system: cancer cell lines silenced for or carrying mutations of BRCA-1 or BRCA-2; Ewing's sarcoma, ALL, NSCLC, SCLC and ATM-inactivated tumor cell lines; details: cell lines silenced for BRCA-1 or BRCA-2 or carrying BRCA-1 or BRCA-2 mutations compared to wild type counterparts; cited from earlier work
[4] = system: MDA-MB-436, CAPAN-1, GRANTA-519, OVCAR3, HT29 and DLD-1, patient derived Ewing's sarcoma, and TNBC xenograft models; details: xenograft models in mice; cited from earlier work
PARP activity = details: stimulated by hydrogen peroxide, various cell lines, cited from earlier work
[5] = system: HRR11 KO isogenic Dld-1 cell lines; details: bi-allelic mutations in BRCA1, BRCA2, PALB2 and ATM (FIG. 5)
Description: CRISPR/Cas9 technology was used to knock-out either the single or both alleles of 11 clinically-relevant HR genes in two different genetic backgrounds, using Dld-1 and HeLa cell lines. […] Compounds were added 24 h after cell seeding, and then every 3- to 4-days (2-times a week) during the incubation period (for 13-days incubation period).

HRR mutant PDX models = system: HRR mutant PDX models
Description: The relative contribution of the loss of BRCA and non-BRCA HRR genes to PARP synthetic lethality in additional indications other than ovarian and breast was also evaluated. To this end, CRISPR/Cas9 technology was utilized to knock-out either the single or both alleles of 11 clinically-relevant HR genes in two different genetic backgrounds.

ovarian cancer patients = details: cited from earlier work
[6] = 106 patients, 600 mg orally twice daily
[7] = ATM bi-allelic mutant NSCLC PDX models

CNCc1ccc(-c2[nH]c3cc(F)cc4c3c2CCNC4=O)cc1 [rucaparib, 8-fluoro-2-{4-[(methylamino)methyl]phenyl}-1,3,4,5-tetrahydro-6H-azepino[5,4,3-cd]indol-6-one ((1S,4R)-7,7-dimethyl-2-oxobicyclo[2.2.1]hept-1-yl)methanesulfonic acid salt]
Response assessment by independent radiology review [1, 6]: 42% | median DOR [1, 6]: 6.7 months | Investigator-assessed ORR ([1]; platinum-refractory patients): 0% | Investigator-assessed ORR ([1]; platinum-resistant patients): 25% | Investigator-assessed ORR ([1]; platinum-sensitive patients): 66%

Cc1ccc(S(=O)(=O)O)cc1.NC(=O)c1cccc2cn(-c3ccc([C@@H]4CCCNC4)cc3)nc12 [Niraparib, (3S)-3-[4-{7-(aminocarbonyl)-2H-indazol-2-yl}phenyl]piperidine]
Median Progression Free Survival (PFS) ([2]; Non-tBRCA1/2 HRR mutant): 15.7 | Median Progression Free Survival (PFS) ([2]; tBRCA1/2 mutant): 15.4 | effectiveness of niraparib treatment ([2]; tBRCA wildtype patients with at least one mutation in 31 DDR gene panel compared to no mutation): similarly effective | anti-proliferative activity [3]: selective anti-proliferative activity | antitumor activity [4]: strong antitumor activity | IC50 (PARP activity; read-out: IC50, PARP activity in cells): ~4 nM | IC90 (PARP activity; read-out: inhibitory concentration at 90% of control (IC90), PARP activity in cells): ~50 nM | models sensitive to niraparib (NSCLC PDX models; [7]): 2 out of 8 | models sensitive to niraparib (NSCLC PDX models; HRR WT NSCLC PDX models (3 out of 40)): 7.5% | niraparib sensitivity based on total growth inhibition (TGI) [5]: strongest niraparib sensitivity | PDX models with strong sensitivity, TGI>70% (HRR mutant PDX models; [7]): 33% | PDX models with moderate sensitivity, TGI≥50% (HRR mutant PDX models; ATM bi-allelic mutant PDX models): 14% | PDX models with TGI≥50% (HRR mutant PDX models; ATM monoallelic mutant PDX models): 0/6 | models sensitive with ≥50% TGI (HRR mutant PDX models; BAP bi-allelic mutations, across 5-tumor types): 36% | PDX models with moderate sensitivity, ≥50% TGI (HRR mutant PDX models; BRCA1/2 bi-allelic mutant PDX models): 43% | PDX models with moderate sensitivity, TGI≥50% (HRR mutant PDX models; BRCA2 bi-allelic mutant PDX models): 43% | PDX models with >100% TGI (HRR mutant PDX models; OvCa PDX models): 80% | PDX models with strong sensitivity (HRR mutant PDX models; PALB2 monoallelic mutant PDX models (1/6)): 17% | niraparib sensitivity based on total growth inhibition (TGI) (HRR mutant PDX models; bi-allelic mutations in BRCA1, BRCA2, PALB2 and ATM (FIG. 4)): strongest niraparib sensitivity | TGI (HRR mutant PDX models; sensitive PALB2 monoallelic mutant PDX model): 93%

O=C(c1cc(Cc2n[nH]c(=O)c3ccccc23)ccc1F)N1CCN(C(=O)C2CC2)CC1 [olaparib, 4-[(3-{[4-(cyclopropylcarbonyl)piperazin-1-yl]carbonyl}-4-fluorophenyl)methyl]phthalazin-1(2H)-one]
responses (ovarian cancer patients; in 17 patients with BRCA1 or BRCA2 mutations): 7 responses | responses (ovarian cancer patients; in the 46 who did not have these mutations): 11 responses
